Assay results taken from US20220267300A1 (NodThera Limited, priority 2019, published 2022).

system: IL-1β release upon NLRP3 activation in peripheral blood mononuclear cells (PBMC); test: PBMC IC50 determination assay (inhibition of IL-1β release); format: cell-based; details: Homo sapiens; IL-1β release from LPS-primed PBMC stimulated with ATP (5 mM) or nigericin (10 μM); ELISA or HTRF; corresponding sodium salts evaluated
Experimental: The compounds of the present disclosure were tested for their inhibitory activity against IL-1β release upon NLRP3 activation in peripheral blood mononuclear cells (PBMC).
Protocol A. PBMC were isolated from buffy coats by density gradient centrifugation on Histopaque-1077 (Sigma, cat no. 10771). Isolated cells were seeded into the wells of a 96-well plate and incubated for 3 h with lipopolysaccharide (LPS). Following medium exchange, the compounds of the present disclosure were added (a single compound per well) and the cells were incubated for 30 min. Next, the cells were stimulated either with ATP (5 mM) or nigericin (10 μM) for 1 h and the cell culture media from the wells were collected for further analysis.
The release of IL-1β into the media was determined by a quantitative detection of IL-1β in the media using an IL-1β enzyme-linked immunosorbent assay (ELISA) Ready-SET-Go!, eBioscience cat. No. 88-7261-88. Briefly, in a first step, high affinity binding plates (Corning, Costar 9018 or NUNC Maxisorp Cat No. 44-2404) were coated overnight at 4° C. with specific capture antibody included in the kit (anti-human IL-1β ref. 14-7018-68). Subsequently, plates were blocked with blocking buffer for 1 h at room temperature (rt) and after washing with a buffer (PBS with 0.05% Tween-20) incubated with protein standard and culture media. After 2 h of incubation at rt, plates were washed and incubated with biotinylated detection antibody included in the kit (anti-human IL-1β Biotin ref. 33-7110-68) for 1 h at rt. Plates were washed and incubated with HRP-streptavidin for 30 min at rt and washed again. The signal was developed after addition of 3,3′,5,5′-tetramethylbenzidine-peroxidase (TMB) until colour appeared and the reaction was stopped by 2 M H2SO4. A microplate spectrophotometer (BioTek) was used to detect signals with 450 nm. The detection range of IL-1β ELISA was 2-150 ng/ml.
Protocol B. PBMC were isolated from buffy coats by density gradient centrifugation on Histopaque-1077 (Sigma, cat no. 10771). Isolated cells were seeded into the wells (280,000 cells/well) of a 96-well plate and incubated for 3 h with lipopolysaccharide (LPS, 1 μg/ml diluted 1000× from a 1 mg/ml stock solution). The compounds of the present disclosure were added (a single compound per well) and the cells were incubated for 30 min. Next, the cells were stimulated with ATP (5 mM final concentration diluted 20× from a 100 mM stock solution) for 1 h and the cell culture media from the wells were collected for further analysis.
The release of IL-1β into the media was determined by quantitative detection of IL-1β in the media using HTRF®, CisBio cat. No. 62HIL1BPEH. Briefly, cell culture supernatant were dispensed directly into the assay plate containing antibodies labelled with the HTRF® donor and acceptor. A microplate spectrophotometer (BMG) was used to detect signals at 655 nm and 620 nm. The detection range of IL-1β HTRF® was 39-6500 pg/ml.

First: CC(C)c1cc(CC(=O)NS(=O)(=O)N(c2cnn(C)c2)C2CCCN(C)C2)c(C(C)C)s1 (stereo not shown) [Example 14, 2-[2,5-Bis(propan-2-yl)thiophen-3-yl]-N-[(1-methyl-1H-pyrazol-4-yl)(1-methylpiperidin-3-yl)sulfamoyl]acetamide]
Second: CC(C)c1cc(CC(=O)NS(=O)(=O)N(c2cnn(C)c2)C2CCCN(C)C2)cc(C(C)C)c1 (stereo not shown) [Example 3]
The IC50 of the first is lower: less than 1 µM for the first, 10 to 50 µM for the second.

Going from `CN1CCC[C@H]1CN(c1cnn(C)c1)S(=O)(=O)NC(=O)Cc1c2c(cc3c1CCC3)CCC2` [Example 11, 2-(1,2,3,5,6,7-Hexahydro-s-indacen-4-yl)-N-[(1-methyl-1H-pyrazol-4-yl)({[(2S)-1-methylpyrrolidin-2-yl]methyl})sulfamoyl]acetamide] to `Cn1cc(N(CCCN)S(=O)(=O)NC(=O)Cc2c3c(cc4c2CCC4)CCC3)cn1` [Example 34], the IC50 rises from less than 1 µM to no less than 50 µM. The first is the more potent here.

`CN1CCCC(N(c2cnn(C)c2)S(=O)(=O)NC(=O)Cc2cc(Cl)cc(C(F)(F)F)c2)C1` (stereo not shown) [Example 4, 2-[3-Chloro-5-(trifluoromethyl)phenyl]-N-[(1-methyl-1H-pyrazol-4-yl)(1-methylpiperidin-3-yl)sulfamoyl]acetamide] and `Cc1cc(CC(=O)NS(=O)(=O)N(c2cnn(C)c2)C2CCCN(C)C2)cc(C(F)(F)F)c1` (stereo not shown) [Example 2, N-[(1-Methyl-1H-pyrazol-4-yl)(1-methylpiperidin-3-yl)sulfamoyl]-2-[3-methyl-5-(trifluoromethyl)phenyl]acetamide] fall in the same range of IC50: 10 to 50 µM for the first, 10 to 50 µM for the second.

First: CN1CCC(N(c2cnn(C)c2)S(=O)(=O)NC(=O)Cc2c3c(cc4c2CC4)CC3)CC1 [Example 29, N-[(1-methyl-4-piperidyl)-(1-methylpyrazol-4-yl)sulfamoyl]-2-(2-tricyclo[6.2.0.03,6]deca-1(8),2,6-trienyl)acetamide]
Second: CN1CCCC(N(c2cnn(C)c2)S(N)(=O)=NC(=O)Cc2c3c(cc4c2CCC4)CCC3)C1 (stereo not shown) [Example 13, N-{Amino[(1-methyl-1H-pyrazol-4-yl)(1-methylpiperidin-3-yl)amino]oxo-lambda6-sulfanylidene}-2-(1,2,3,5,6,7-hexahydro-s-indacen-4-yl)acetamide]
The IC50 of the first is lower: 1 to 3 µM for the first, 3 to 10 µM for the second.

Compared with `CC(C)c1cc(F)cc(C(C)C)c1CC(=O)NS(=O)(=O)N(c1cnn(C)c1)C1CCCN(C)C1` (stereo not shown) [Example 1, 2-[4-Fluoro-2,6-bis(propan-2-yl)phenyl]-N-[(1-methyl-1H-pyrazol-4-yl)(1-methylpiperidin-3-yl)sulfamoyl]acetamide], `COc1cc(-c2cc(F)cc(C(C)C)c2CC(=O)NS(=O)(=O)N(c2cnn(C)c2)C2CCCN(C)C2)ccn1` (stereo not shown) [Example 28, 2-[4-Fluoro-2-isopropyl-6-(2-methoxy-4-pyridyl)phenyl]-N-[(1-methyl-3-piperidyl)-(1-methylpyrazol-4-yl)sulfamoyl]acetamide] is lower in IC50: 10 to 50 µM for the first, 3 to 10 µM for the second.

First: CN1CCC[C@H]1CN(c1cnn(C)c1)S(=O)(=O)NC(=O)Cc1cc(Cl)cc(OCC(F)(F)F)c1 [Example 51]
Second: CC(C)c1cc(CC(=O)NS(=O)(=O)N(C[C@@H]2CCCN2C)c2cnn(C)c2)cc(C(C)C)c1 [Example 5, 2-[3,5-Bis(propan-2-yl)phenyl]-N-[(1-methyl-1H-pyrazol-4-yl)({[(2S)-1-methylpyrrolidin-2-yl]methyl})sulfamoyl]acetamide]
The IC50 of the first is higher: no less than 50 µM for the first, less than 1 µM for the second. The second is the more potent here.

First: CC(C)c1ccc(Cl)c(C(C)C)c1CC(=O)NS(=O)(=O)N(C[C@@H]1CCCN1C)c1cnn(C)c1 [Example 12, 2-[3-Chloro-2,6-bis(propan-2-yl)phenyl]-N-[(1-methyl-1H-pyrazol-4-yl)({[(2S)-1-methylpyrrolidin-2-yl]methyl})sulfamoyl]acetamide]
Second: CN1CCC[C@@H]1CN(c1cnn(C)c1)S(=O)(=O)NC(=O)Cc1cc(C(C)(C)C)cc(C(C)(C)C)c1 [Example 54]
The IC50 of the first is lower: 3 to 10 µM for the first, 10 to 50 µM for the second.

Compared with `Cc1noc(N(C2CCCN(C)C2)S(=O)(=O)NC(=O)Cc2cc(C(C)C)cc(C(C)C)c2)c1C` (stereo not shown) [Example 7, 2-[3,5-Bis(propan-2-yl)phenyl]-N-[(3,4-dimethyl-1,2-oxazol-5-yl)(1-methylpiperidin-3-yl)sulfamoyl]acetamide], `Cn1cc(N(CCCNC(=O)OCc2ccccc2)S(=O)(=O)NC(=O)Cc2c3c(cc4c2CCC4)CCC3)cn1` [Example 27, Benzyl N-[3-[[2-(1,2,3,5,6,7-hexahydro-s-indacen-4-yl)acetyl]sulfamoyl-(1-methylpyrazol-4-yl)amino]propyl]carbamate] is higher in IC50: less than 1 µM for the first, 1 to 3 µM for the second.
